Assay [1] deals with H9C2 cells. Kind of assay: cAMP accumulation in H9C2 cells. Format: cell-based. As to conditions: 5 μM ISO, 3 minutes, 10 μM drug. The text has this:
[…] Fludarabine ((+)-2-Fluoro-9-(5-O-phosphono-β-D-arabinofuranosyl)-9H-purin-6-amine) and Cladribine (2-chloro-2′-deoxyadenosine) are anti-cancer drugs, Adefovir (Bis(2,2-dimethylpropanoyloxymethyl)[2-(6-amino-9H-purin-9-yl)ethoxymethyl]phosphonate) and Zidovudine are anti-HIV drugs. Zidovudine-TP is a metabolite of zidovudine which inhibits virus replication. TP; triphosphate. 3-Deazaadenosine, Formycin A (7-Amino-3-(β-D-ribofuranosyl)-1H-pyrazolo[4,3-d]pyrimidine), 2-Far (2-Fluoroadenosine), formycin A ((2S,3R,4S,5R)-2-(7-amino-2H-pyrazolo[5,4-e]pyramidin-3-yl-5-(hydroxymeth-yl)oxolane-3,4-diol), 2-FD (2-Fluoro-2′-deoxyadenosine) and 2′5′ ddAdo (2′5′-dideoxyadenosine) are experimental drugs.
(§1) Mice were anesthetized with 2.5% tribromoethanol (0.010 to 0.015 mL per gram of body weight) injected intraperitoneally, and echocardiography was performed with ultrasonography (ACUSON Sequoia C256, Siemens Medical Solutions, Malvern, Pa.). For acute injection of isoproterenol, forskolin and milrinon, a PE-10 catheter was inserted into the right jugular vein, and drugs were injected at the rate of 1 μl/s. cAMP accumulation assay in H9C2 cells, a cardiac myoblast cell line, was examined as previously described.
(In general: Changes in cAMP serve as a functional read-out for many G protein-coupled receptors.)

In assay [2] the target is type 5 AC (Homo sapiens, UniProt O95622). Kind of assay: Double-reciprocal plots of type 5 AC catalytic activity against ATP.
Sequence of type 5 AC (O95622 whole entry): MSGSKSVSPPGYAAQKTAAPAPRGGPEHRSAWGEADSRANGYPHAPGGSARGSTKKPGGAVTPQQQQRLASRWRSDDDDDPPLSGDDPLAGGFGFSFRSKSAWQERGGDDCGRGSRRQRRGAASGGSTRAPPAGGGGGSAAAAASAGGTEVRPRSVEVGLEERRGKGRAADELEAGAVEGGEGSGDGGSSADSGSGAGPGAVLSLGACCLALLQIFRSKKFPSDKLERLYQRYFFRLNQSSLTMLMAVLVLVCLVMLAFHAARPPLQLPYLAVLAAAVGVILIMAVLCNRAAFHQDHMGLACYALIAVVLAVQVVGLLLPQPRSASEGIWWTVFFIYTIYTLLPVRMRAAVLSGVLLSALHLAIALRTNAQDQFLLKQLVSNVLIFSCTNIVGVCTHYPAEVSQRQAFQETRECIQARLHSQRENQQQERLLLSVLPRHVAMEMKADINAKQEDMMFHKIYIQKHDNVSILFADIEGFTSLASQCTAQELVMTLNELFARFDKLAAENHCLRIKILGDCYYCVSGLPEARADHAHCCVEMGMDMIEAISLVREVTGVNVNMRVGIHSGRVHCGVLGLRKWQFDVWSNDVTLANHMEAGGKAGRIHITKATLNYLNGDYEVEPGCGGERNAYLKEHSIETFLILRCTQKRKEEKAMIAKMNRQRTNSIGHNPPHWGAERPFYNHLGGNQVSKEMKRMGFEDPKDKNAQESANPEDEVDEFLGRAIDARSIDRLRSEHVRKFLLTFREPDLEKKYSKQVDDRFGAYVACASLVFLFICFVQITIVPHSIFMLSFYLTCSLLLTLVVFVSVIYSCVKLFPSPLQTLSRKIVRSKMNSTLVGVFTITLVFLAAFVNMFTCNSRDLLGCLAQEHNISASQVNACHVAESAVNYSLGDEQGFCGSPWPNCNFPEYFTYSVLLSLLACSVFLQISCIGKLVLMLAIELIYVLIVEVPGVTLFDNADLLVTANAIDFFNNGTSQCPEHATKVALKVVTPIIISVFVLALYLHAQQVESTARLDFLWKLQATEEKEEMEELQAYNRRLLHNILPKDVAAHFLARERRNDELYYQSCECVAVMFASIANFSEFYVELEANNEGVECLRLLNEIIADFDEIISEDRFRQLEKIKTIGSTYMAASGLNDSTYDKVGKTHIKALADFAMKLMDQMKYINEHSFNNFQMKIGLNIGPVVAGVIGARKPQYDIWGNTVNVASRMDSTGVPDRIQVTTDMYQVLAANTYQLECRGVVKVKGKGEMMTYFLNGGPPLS
Description: Hearts and striatum were dissected from the mice and membrane preparations were made as previously described. This crude membrane preparation was used in the AC assay. AC activity was measured by a modification of the method of Salomon et al. as previously described. […] Double-reciprocal plots were examined as previously described.
Assay [3] has as its system AC. Kind of assay: AC activity in heart membranes from WT and AC5KO mice. Format: biochemical, mouse. The method, then:
Protein concentration was measured by the method of Bradford using bovine serum albumin as a standard. AC activity was measured as described previously. AC activity was linear within the incubation time up to 30 min. In order to harvest hearts for tissue cAMP content measurements, mice were allowed to acclimate to the surroundings in the laboratory for an hour before sacrifice. Freshly isolated hearts were briefly immersed in liquid nitrogen. The tissue was homogenized in ice-cold 6% percholic acid, and cAMP was extracted as described before. The concentration of cAMP was determined with an RIA kit (PerkinElmer Life Sciences, Boston, Mass., USA).
cAMP production in membranes from the hearts of AC5KO and WT at 6 months of age was examined. The steady state AC activity was determined as the maximal capacity of cAMP production in the presence of ISO (100 μM ISO+100 μM GTP), GTPγS (100 μM) or forskolin (100 μM). […] Basal cardiac function was not decreased, but the response to ISO and muscarinic inhibition of ISO were attenuated.
Protein concentration was measured by the Bradford method using bovine serum albumin as a standard. AC activity was measured as described previously. AC activity was linear within the incubation time up to 30 min. For the study of Ca^2+ inhibition, the membranes were treated first with EGTA to extract the endogenous Ca^2+ prior to the assay. Free Ca^2+ concentrations were obtained with the use of 200 μmol/L EGTA buffers as described previously. The experiments with Ca^2+ inhibition were conducted in the presence of 100 μmol/L isoproterenol (ISO) plus 100 μmol/L GTP.
cAMP production in membranes from the hearts of AC5KO and WT mice at the age of 6 months were examined. The steady state AC activity in the membrane preparation was determined as the maximal capacity of cAMP production in the presence of ISO ([…], ISO+100 μmol/L GTP), guanosine-5′-O-(3-triophosphate) GTP[…]S (100 μmol/L), or forskolin (100 μmol/L). AC activity was decreased in AC5KO relative to that of WT by 35+/−4% (basal), 27+/−5% (ISO), 27+/−2% (GTPγS), and 40+/−5% (forskolin).

The subject of assay [4] is WT and AC5KO mice. Kind of assay: Heart rate and arterial pressure in conscious WT and AC5KO mice. Format: in vivo, mouse. As to conditions: for decrease in HR in conscious AC5KO / decrease in HR in conscious WT: 0.01 μg/g (0.01 mg/kg) i.v. The text has this:
In AC5KO and WT mice, four ECG wires (New England Electric Wire Corporation, Lisbon, N.H., USA) were placed subcutaneously, a silicone elastomer tubing (Cardiovascular Instrument Corp., Wakefield, Mass., USA) was inserted into the right external jugular vein and a 1.4 F micromanometer catheter (Millar Instruments, Inc., Houston, Tex., USA) was inserted into the lower abdominal aorta via the femoral artery as described previously with some modifications. The ECG wires, the silicone elastomer tubing and the micromanometer catheter were tunneled subcutaneously to the back, externalized, and secured in a plastic cap. On the day of the study, each mouse was placed in the mouse holder, the jugular venous catheter was accessed and connected to a microliter syringe (Hamilton Co., Reno, Nev., USA), the 1.4 F micromanometer catheter was connected to a recorder (Dash 4u; Astro-Med, Inc., West Warwick, R.I., USA) and the ECG wires were connected to an ECG amplifier (Gould Inc., Cleveland, Ohio, USA). All experiments were recorded with animals in the conscious state. After at least 6 hours recovery from the implantation of the catheter, when a stable heart rate (HR) was achieved, the baseline ECG and arterial pressure (AP) were recorded for 5 min. Ach (0.05 μg/g) was then administered intravenously (i.v.), and the ECG and AP recording were repeated. A recovery period of 15 min was allowed for the HR and AP to return to baseline before administering the next drug. Baseline HR slowing was examined in response to phenylephrine (0.2 μg i.v.).
Electrocardiogram (ECG) wires, a jugular vein catheter for drug infusion, and a femoral artery catheter for arterial pressure monitoring were implanted under anesthesia. Measurements of left ventricular ejection fraction (LVEF) were taken using echocardiography under anesthesia with 2.5% tribromomethanol (0.010-0.015 ml/g body wt) injected intraperitoneally (i.p.). Intravenous (i.v.) infusion of ISO (0.04 μg/kg/min i.v. for 5 min) was performed using an infusion pump. To examine the responses to a muscarinic agonist, acetylcholine (ACh) (25 mg/kg i.p.) was co-administered i.p. during the i.v. infusion of ISO (0.04 μg/kg/min). In addition, in conscious mice ACh (0.01 and 0.05 mg/kg), atropine (0.25, 1 and 2 mg/kg), or verapamil (0.75 mg/kg) were administered i.v., and the ECG was recorded. A recovery period of 15 min was allowed for the HR to return to baseline before administering the next drug. To examine HR responses to baroreflex hypertension, phenylephrine (0.2 mg/kg i.v.) was infused, and the ECG and arterial pressure were measured.

Assay [5] has as its target T1, AC5 (UniProt P30803).
T1 construct: IC50 AC5; other: recombinant AC proteins; other: THFA: in the presence of Gs-α/GTPαS/forskolin
Kind of assay: AC inhibition, recombinant AC proteins: AC5. It is filed as biochemical. The following applies: read-out: IC50 for AC5.

In assay [6] the test system is AC5. Kind of assay: AC inhibition, recombinant AC proteins: AC5. It is filed as biochemical.
Assay [7] concerns C57Bl/6 mice, chronic ISO infusion. Kind of assay: Chronic ISO infusion heart failure model. Format: in vivo, mouse.
Excerpt: ISO with or without AC5 inhibitors were chronically infused with osmotic mini-pump implanted subcutaneously at indicated doses for 1 week in c57Bl/6 mice. Mice were then subjected to echocardiography (a) and the hearts were removed and subjected to pathological examinations such as myocardial apoptosis (b) and fibrosis (c). n=4-8.
In C57Bl/6 mice, ISO with or without AC5 inhibitors or metoprolol were chronically infused with an osmotic mini-pump at the indicated doses for 1 week. Mice were then subjected to echocardiography (a) and heart tissue were subjected to a myocardial apoptosis assay (b). *, p<0.01 vs vehicle. #, p<0.05 vs vehicle. .dagger., p<0.01 vs ISO. .dagger-dbl., p<0.05 vs ISO. n=4-15. […] Comparisons between multiple groups were made using ANOVA with post-hoc tests.
Tenofovir diphosphate (PMPA-PP), zidovudine monophosphate (MP), zidovudine diphosphate (PP), zidovudine triphosphate (TP), famciclovir penciclovir and valaciclovir were purchased from Moravek. Formycin A (FMA) and Formycin B (FMB) were purchased from Berry and Associates. All other reagents were from Sigma unless specified. Long-term infusion of isoproterenol (Sigma, St. Louis, Mo.) was performed for 7 days at a dose of 60 mg/kg/d with or without AC5 inhibitors by using a miniosmotic pump (ALZET model 2001, DURECT Corp, Cupertino, Calif.). Control mice received vehicle in pumps. Pumps were removed 24 hours before biochemical and physiological studies. Experiments were performed in 3- to 5-month-old male C57Bl/6, and in AC5Tg transgenic mice. This study was approved by the Animal Care and Use Committee at New Jersey Medical School.
as §1

Assay [8] deals with cardiac myocytes. Kind of assay: ISO-induced apoptosis in cultured cardiac myocytes (DNA fragmentation ELISA). It is filed as cell-based. The following applies: 100 μM ISO, 48 h.
Description: Cultured cardiac myocytes were incubated with 100 μM ISO in the presence or absence of AC5 inhibitors at the indicated concentrations for 48 h.

These results are taken from US8871735B2, “Methods and compositions for providing cardiac protection” (University of Medicine and Dentistry of New Jersey, priority 2008, dated 2014).

Values joined by “and” are separate entries in the source; they are usually repeats but may differ in a detail not shown here. Equal values may be shown once. “Also recorded” adds a separate entry of the source. Read-outs that look alike come from different tables or passages of the source.

In the case of `Nc1nc(Cl)nc2c1ncn2[C@H]1C[C@H](O)[C@@H](CO)O1` [cladribine, 2-chloro-2′-deoxyadenosine], the “inhibition of cAMP accumulation in H9C2 cells” value (shortened to “inhibition of cAMP accumulation”) in assay [1] is on record as “slight inhibition”.

As for `Nc1nc(F)nc2c1ncn2[C@@H]1O[C@H](CO)[C@@H](O)[C@H]1O` [2-fluoroadenosine, 2-Fluoroadenosine], in assay [1], the “inhibition of cAMP accumulation” value is given as “moderately inhibited”. Besides, the “mode of inhibition with respect to ATP” value in assay [2] is “non-competitive”.

Regarding `CC(C)NCC(O)c1ccc(O)c(O)c1` (centres unmarked) [ISO, isoproterenol], the “increase in AC activity in AC5KO” value in assay [3] (100 μmol/L ISO + 100 μmol/L GTP, AC5KO) was 64+/−4 pmol/15 min/mg. In addition, the “increase in AC activity in WT” value in assay [3] (100 μmol/L ISO + 100 μmol/L GTP, WT) is recorded as 78+/−6 pmol/15 min/mg.

Consider `CC(Cn1cnc2c(N)ncnc21)OCP(=O)(O)OP(=O)(O)OP(=O)(O)O` (stereo in doubt) [PMPA-PP, Tenofovir diphosphate], for which the “inhibition of cAMP accumulation” value in assay [1] is given as “little inhibition”.

For the compound `COc1ccc(CCN(C)CCCC(C#N)(c2ccc(OC)c(OC)c2)C(C)C)cc1OC` (centres unmarked) [verapamil], the “change in HR in AC5KO” value in assay [4] (0.75 mg/kg i.v., AC5KO) is recorded as −33+/−10 beats/min. In addition, in assay [4] (0.75 mg/kg i.v., WT), the “change in HR in WT” value is listed as −36+/−10 beats/min.

A word on the IC50: it is the concentration that inhibits the measured activity by half. Consider `Nc1ncnc2c1ncn2[C@@H]1O[C@H](CO)[C@@H](OP(=O)(O)O)[C@H]1O` [3′-AMP], for which the IC50 in assay [5] (THFA: in the presence of Gs-α/GTPαS/forskolin) came out at 14.6 µM.

Regarding `C[C@H]1O[C@@H](n2cnc3c(N)ncnc32)C[C@@H]1O` [2′5′-dd-Ado, 2′5′-dideoxyadenosine], the “Selectivity ratio for AC5, AC5/AC2” value in assay [6] (ratio of IC50 for AC5 to that for AC2) is listed as 0.00067. The “Selectivity ratio for AC5, AC5/AC3” value in assay [6] (ratio of IC50 for AC5 to that for AC3) was 0.0063. In assay [7] (ISO 60 mg/kg/d 7 days, Ara-Ade 20 and 100 mg/kg/day, 2′5′ ddAdo 20 mg/kg/day), the “ISO-induced decrease in LVEF (and FS)” value was “rescued LVEF and FS reduction”. In assay [7] (chronic ISO infusion), the ISO-induced cardiac fibrosis entry was “significantly inhibited”; the “ISO-induced myocardial apoptosis in vivo” value is recorded as “significantly inhibited”; the “ISO-induced wall thickening (DESP, DPW)” value is listed as “neither Ara-Ade nor 2′5′ ddAdo inhibited”; the “LVW/BW and myocyte cross sectional area” value was “increased”. In addition, the “ISO-induced apoptosis in cultured cardiac myocytes” value in assay [8] was “abolished”. Also, the “inhibition of cAMP accumulation” value in assay [1] was “greatest inhibition”. The “mode of inhibition with respect to ATP” value in assay [2] was “non-competitive”.

For the compound `Nc1ncnc2c1ncn2[C@H]1C[C@H](OP(=O)(O)O)[C@@H](CO)O1` [2′-d-3′-AMP], the IC50 in assay [5] was found to be 0.82 µM.

With `Cc1cn([C@H]2C[C@H](N=[N+]=[N-])[C@@H](COP(=O)(O)OP(=O)(O)OP(=O)(O)O)O2)c(=O)[nH]c1=O` [zidovudine-TP, zidovudine triphosphate], the “inhibition of cAMP accumulation” value in assay [1] is “little inhibition”. Further, the “mode of inhibition with respect to ATP” value in assay [2] was “competitive”.

Turning to `CC(=O)OCC[N+](C)(C)C` [ACh, acetylcholine], the “decrease in HR in conscious AC5KO” value in assay [4] (AC5KO) was found to be 1.3%; in assay [4] (AC5KO, listed as Ach), 7.5%. In addition, the “decrease in HR in conscious WT” value in assay [4] (WT) came out at 15%; in assay [4] (WT, listed as Ach) it was 22%.

Take `CNC[C@H](O)c1cccc(O)c1` [Phenylephrine]: the systolic arterial pressure result in assay [4] (0.2 μg/g (0.2 mg/kg) i.v., WT and AC5KO) is “increased systolic arterial pressure significantly in both WT and AC5KO; also recorded: increased systolic arterial pressure similarly in both WT and AC5KO”.

On to `C[N+](C)(C)CCOC(N)=O` [Carbachol], for which the “inhibition of ISO-stimulated AC activity in AC5KO” value in assay [3] (10 μM, AC5KO heart membranes) is reported as “did not inhibit; also recorded: hardly detectable”. Besides, the “decrease of ISO-stimulated AC activity in WT” value in assay [3] (10 μM, WT heart membranes) is 21+/−3.4% and 21+/−3%.

On to `Nc1ncnc2c([C@@H]3O[C@H](CO)[C@@H](O)[C@H]3O)n[nH]c12` [FMA, 7-Amino-3-(β-D-ribofuranosyl)-1H-pyrazolo[4,3-d]pyrimidine], for which the “inhibition of cAMP accumulation” value in assay [1] is reported as “moderately inhibited”.

Take `CN1[C@@H]2CC[C@H]1C[C@@H](OC(=O)C(CO)c1ccccc1)C2` (some centres unmarked) [atropine]: in assay [4] (1 μg/g i.v., AC5KO), the “increase in HR in AC5KO” value is on record as 19+/−7.5 beats/min. Besides, the “increase in HR in WT” value in assay [4] (1 μg/g i.v., WT) was 102+/−22.2 beats/min.
